Literature values as cited in patent publication US8021659B2, “Coenzyme Q10, lactoferrin and angiogenin compositions and uses thereof” (Naidu LP, priority 2006, dated 2011).
Where two headings read alike, the source gives them in different places.

Columns and labels:
[1] = human plasma

| elimination half-life (excretion primarily through the biliary tract) | time to peak levels of CoQ-10 in the plasma (following oral administration) [h] | orally administered CoQ-10 excreted in the feces (oral administration) | serum concentrations (regular doses of 30-60 mg/day) [ng/mL] | serum concentrations (therapeutic doses of 100-200 mg/day) [ng/mL] | Compound | half-life (turnover rate) [1] [min] |
| --- | --- | --- | --- | --- | --- | --- |
| approximately 34 hours | 5 to 10 | more than 60% | 700 to 1000 | 2000 to 3000 | COC1=C(OC)C(=O)C(C/C=C(\C)CC/C=C(\C)CC/C=C(\C)CC/C=C(\C)CC/C=C(\C)CC/C=C(\C)CC/C=C(\C)CC/C=C(\C)CC/C=C(\C)CCC=C(C)C)=C(C)C1=O [CoQ-10, 2,3-dimethoxy-5-methyl-6-decaprenyl-1,4-benzoquinone] |  |
|  |  |  |  |  | AGN: 14-kDa, basic heparin-binding protein and a member of the pancreatic ribonuclease superfamily | < 5 |
